Source: patent US9738652B2, “Spiro urea compounds as RSV antiviral compounds” (priority 2014, dated 2017)

Experiments:
[1] = Cytotoxicity in HeLa cells (ATPlite, CC50) used for selectivity index; conditions: human
Description: The wells contain 0.05% DMSO per volume. Cells were incubated at 37° C. in a 5% CO2 atmosphere. […] In parallel, compounds were incubated for three days in a set of white 384-well microtiter plates (Corning) and the cytotoxicity of compounds in HeLa cells was determined by measuring the ATP content of the cells using the ATPlite kit (Perkin Elmer, Zaventem, Belgium) according to the manufacturer's instructions. The CC50 was defined as the 50% concentration for cytotoxicity.

rgRSV224 virus = test: Antiviral activity: rgRSV224 (GFP) replication in HeLa cells; conditions: human respiratory syncytial virus, 72 h, read-out: RSV HELA pEC50 (converted)
Description: Black 384-well clear-bottom microtiter plates (Corning, Amsterdam, The Netherlands) were filled via acoustic drop ejection using the echo liquid handler (Labcyte, Sunnyvale, Calif.). 200 nL of compound stock solutions (100% DMSO) were transferred to the assay plates. 9 serial 4-fold dilutions of compound were made, creating per quadrant the same compound concentration. The assay was initiated by adding 10 μL of culture medium to each well (RPMI medium without phenol red, 10% FBS-heat inactivated, 0.04% gentamycin (50 mg/mL). All addition steps are done by using a multidrop dispenser (Thermo Scientific, Erembodegem, Belgium). Next, rgRSV224 virus (MOI=1) diluted in culture medium was added to the plates. rgRSV224 virus is an engineered virus that includes an additional GFP gene (Hallak L K, Spillmann D, Collins P L, Peeples M E. Glycosaminoglycan sulfation requirements for respiratory syncytial virus infection; Journal of virology (2000), 74(22), 10508-13) and was in-licensed from the NIH (Bethesda, Md., USA). Finally, 20 μL of a HeLa cell suspension (3,000 cells/well) were plated. Medium, virus- and mock-infected controls were included in each test. The wells contain 0.05% DMSO per volume. Cells were incubated at 37° C. in a 5% CO2 atmosphere. Three days post-virus exposure, viral replication was quantified by measuring GFP expression in the cells by an in house developed MSM laser microscope (Tibotec, Beerse, Belgium). The EC50 was defined as the 50% inhibitory concentration for GFP expression. In parallel, compounds were incubated for three days in a set of white 384-well microtiter plates (Corning) and the cytotoxicity of compounds in HeLa cells was determined by measuring the ATP content of the cells using the ATPlite kit (Perkin Elmer, Zaventem, Belgium) according to the manufacturer's instructions. The CC50 was defined as the 50% concentration for cytotoxicity.

Compound	selectivity ratio at 3 days [1]	EC50 (rgRSV224 virus)	melting point
CNC(=O)N1CCC2(CC1)C(=O)N(Cc1nc3cc(Cl)ccc3n1CCCC#N)c1cnccc12 [Co. No. 26, 1′-[[5-chloro-1-(3-cyanopropyl)benzimidazol-2-yl]methyl]-N-methyl-2′-oxo-spiro[piperidine-4,3′-pyrrolo[2,3-c]pyridine]-1-carboxamide]	> 1.82e+06	0.055 nM	99.81 °C
N#CCCCn1c(CN2C(=O)C3(CN(C(=O)NC4CC(O)C4)C3)c3ccccc32)cc2cc(Cl)ccc21 (centres unmarked) [Co. No. 7, 1′-[[5-chloro-1-(3-cyanopropyl)indol-2-yl]methyl]-N-(3-hydroxycyclobutyl)-2′-oxo-spiro[azetidine-3,3′-indoline]-1-carboxamide]	103000	0.407 nM	
